Measured values from US8853392B2, “Benzamide mGluR5 positive allosteric modulators and methods of making and using same” (Vanderbilt University, priority 2007, dated 2014).

The compounds below were run against T1, rat mGluR5 (Rattus norvegicus, UniProt P31424) (assay: potentiation of mGluR5 response to glutamate, Ca2+ fluorescence (FDSS) in HEK cells transfected with rat mGluR5). Conditions: EC50, Table 1, EC50 for potentiating the mGluR5 receptor; unit inferred.
T1 construct: expressed in transfected cells; host or cells: human embryonic kidney (HEK) cells
T1 sequence (P31424 21-1203): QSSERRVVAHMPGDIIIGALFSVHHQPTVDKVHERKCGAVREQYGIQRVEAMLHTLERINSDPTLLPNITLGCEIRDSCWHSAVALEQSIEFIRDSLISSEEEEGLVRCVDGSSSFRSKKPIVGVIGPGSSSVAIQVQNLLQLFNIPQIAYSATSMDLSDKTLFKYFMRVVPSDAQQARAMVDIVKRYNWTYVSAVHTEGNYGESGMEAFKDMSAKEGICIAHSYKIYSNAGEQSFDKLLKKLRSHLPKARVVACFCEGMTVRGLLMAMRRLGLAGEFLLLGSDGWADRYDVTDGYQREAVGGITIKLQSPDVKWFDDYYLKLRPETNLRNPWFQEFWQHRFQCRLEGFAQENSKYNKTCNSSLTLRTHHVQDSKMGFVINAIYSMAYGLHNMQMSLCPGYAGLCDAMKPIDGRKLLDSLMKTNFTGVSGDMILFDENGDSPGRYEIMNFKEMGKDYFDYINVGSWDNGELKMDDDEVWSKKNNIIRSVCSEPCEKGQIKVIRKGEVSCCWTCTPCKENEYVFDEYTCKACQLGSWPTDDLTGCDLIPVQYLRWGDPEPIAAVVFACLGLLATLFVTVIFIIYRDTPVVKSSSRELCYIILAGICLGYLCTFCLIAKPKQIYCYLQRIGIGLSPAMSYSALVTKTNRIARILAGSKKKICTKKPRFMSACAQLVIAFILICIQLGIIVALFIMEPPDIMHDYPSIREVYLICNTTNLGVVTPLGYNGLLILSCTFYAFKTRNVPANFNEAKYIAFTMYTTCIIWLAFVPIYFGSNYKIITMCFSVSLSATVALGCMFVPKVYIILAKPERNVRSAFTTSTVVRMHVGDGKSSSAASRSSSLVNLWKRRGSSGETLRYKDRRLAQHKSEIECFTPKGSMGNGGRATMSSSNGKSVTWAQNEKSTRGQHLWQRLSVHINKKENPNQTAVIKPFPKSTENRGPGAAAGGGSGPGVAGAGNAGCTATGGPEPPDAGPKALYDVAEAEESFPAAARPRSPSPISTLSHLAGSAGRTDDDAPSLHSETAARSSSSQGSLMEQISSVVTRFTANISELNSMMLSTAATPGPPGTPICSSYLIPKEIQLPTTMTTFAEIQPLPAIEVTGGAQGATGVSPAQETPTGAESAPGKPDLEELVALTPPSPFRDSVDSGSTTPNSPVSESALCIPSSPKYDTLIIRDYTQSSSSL
Type: cell-based
Protocol: Human embryonic kidney (HEK) cells transfected with rat mGluR5 were plated in clear bottom assay plates for assay in a Functional Drug Screening System (FDSS). The cells were loaded with a Ca^2+-sensitive fluorescent dye (e.g., Fluo-4), and the plates were washed and placed in the FDSS instrument. After establishment of a fluorescence baseline for twelve seconds, the compounds of the present invention were added to the cells, and the response in cells was measured. Five minutes later, an mGluR5 agonist (e.g., glutamate, 3,5-dihydroxyphenylglycine, or quisqualate) was added to the cells, and the response of the cells was measured. Potentiation of the agonist response of mGluR5 by the compounds in the present invention was observed as an increase in response to non-maximal concentrations of agonist (here, glutamate) in the presence of compound compared to the response to agonist in the absence of compound.
The above described assay operated in two modes. In the first mode, a range of concentrations of the present compounds were added to cells, followed by a single fixed concentration of agonist. If a compound acted as a potentiator, an EC50 value for potentiation and a maximum extent of potentiation by the compound at this concentration of agonist was determined by non-linear curve fitting. In the second mode, several fixed concentrations of the present compounds were added to various wells on a plate, followed by a range of concentrations of agonist for each concentration of present compound; the EC50 values for the agonist at each concentration of compound were determined by non-linear curve fitting. A decrease in the EC50 value of the agonist with increasing concentrations of the present compounds (a leftward shift of the agonist concentration-response curve) is an indication of the degree of mGluR5 potentiation at a given concentration of the present compound. An increase in the EC50 value of the agonist with increasing concentrations of the present compounds (a rightward shift of the agonist concentration-response curve) is an indication of the degree of mGluR5 antagonism at a given concentration of the present compound. The second mode also indicates whether the present compounds also affect the maximum response to mGluR5 to agonists.
Human embryonic kidney (HEK) cells transfected with rat mGluR5 were plated in clear-bottomed, poly-D-lysine-coated assay plates in glutamate-glutamine-free medium growth and incubated overnight at 37° C. in 5% CO2. The following day, cells were loaded with 2 μM calcium indicator dye, fluo-4 AM, for 1 h at 37° C. Dye was removed and replaced with assay buffer containing 1× Hanks balanced salt solution (Invitrogen, Carlsbad, Calif.), 20 mM HEPES, and 2.5 mM probenecid, pH 7.4. Cell plates were then loaded into the Functional Drug Screening System 6000 (FDSS 6000, Hamamatsu, Japan). After establishment of a fluorescence baseline for twelve seconds, the compounds of the present invention were added to the cells, and the response in cells was measured. Five minutes later, an mGluR5 agonist (e.g., glutamate, 3,5-dihydroxyphenylglycine, or quisqualate) was added to the cells, and the response of the cells was measured during a 1 minute incubation with agonists. Typically, the effect of test compounds of the present invention was on an EC20 concentration of glutamate was measured. All test compounds were dissolved and diluted in 100% DMSO and then serially diluted into assay buffer for a 2.5× stock in 0.25% DMSO; stock compounds were then added to the assay for a final DMSO concentration of 0.1%. Calcium fluorescence measures were recorded as fold over basal fluorescence; raw data was then normalized to the maximal response to agonist. Potentiation of the agonist response of mGluR5 by the compounds in the present invention was observed as an increase in response to non-maximal concentrations of agonist (here, glutamate) in the presence of compound compared to the response to agonist in the absence of compound. […]

Question: With `CC(=O)C1(c2ccccc2)CCN(C(=O)c2ccc(C#Cc3ccccc3)cc2)CC1` [1-(4-phenyl-1-(4-(phenylethynyl)benzoyl)piperidin-4-yl)ethanone] as the compound, how does the EC50 read?
Answer: Its EC50 is 1250 nM.

Question: With `N#CC1(c2ccccc2)CCN(C(=O)c2ccc(C#Cc3ccccc3)cc2)CC1` [4-phenyl-1-(4-(phenylethynyl)benzoyl)piperidine-4-carbonitrile] as the compound, how does the EC50 read?
Answer: Its EC50 is 1140 nM.

Same assay, conditions: Table 1, EC50 for potentiating the mGluR5 receptor; unit inferred; read-out: EC50

Question: With `N#Cc1ccccc1N1CCN(C(=O)c2ccc(C#Cc3ccccc3)cc2)CC1` as the compound, how does the EC50 read?
Answer: The EC50 was 4200 nM.

Question: `O=C(c1ccc(C#Cc2ccccc2)cc1)N1CCC(n2c(=O)[nH]c3ccccc32)CC1` [1-(1-(4-(phenylethynyl)benzoyl)piperidin-4-yl)-1H-benzo[d]imidazol-2(3H)-one] was tested. Which EC50 did it give?
Answer: The EC50 was 1470 nM.

Question: With `COCCCNC(=O)c1ccc(-c2nc(-c3ccc(F)cc3)no2)cc1` [4-(3-(4-fluorophenyl)-1,2,4-oxadiazol-5-yl)-N-(3-methoxypropyl)benzamide] as the compound, how does the EC50 read?
Answer: The EC50 was 1120 nM.

Question: `CCCNC(=O)c1ccc(-c2nc(-c3ccc(F)cc3)no2)cc1` [4-(3-(4-fluorophenyl)-1,2,4-oxadiazol-5-yl)-N-propylbenzamide] was tested. Which EC50 did it give?
Answer: Its EC50 is 2030 nM.

Question: How did the EC50 turn out when `CCCNC(=O)c1ccc(-c2nc(-c3ccccc3)no2)cc1` [4-(3-phenyl-1,2,4-oxadiazol-5-yl)-N-propylbenzamide] was run?
Answer: Its EC50 is 2270 nM.

Question: How did the EC50 turn out when `O=C(NCCN1CCCCC1)c1ccc(C#Cc2ccccc2)cc1` [4-(phenylethynyl)-N-(2-(piperidin-1-yl)ethyl)benzamide] was run?
Answer: The EC50 was 1790 nM.

Question: For `CCCNC(=O)c1ccc(C#Cc2ccccc2)cc1` [4-(phenylethynyl)-N-propylbenzamide], which EC50 is on record?
Answer: Its EC50 is 14.7 nM.

Question: With `O=C(c1ccc(C#Cc2ccccc2)cc1)n1c(=O)n(C2CCNCC2)c2cc(Cl)ccc21` [5-chloro-1-(4-(phenylethynyl)benzoyl)-3-(piperidin-4-yl)-1H-benzo[d]imidazol-2(3H)-one] as the compound, how does the EC50 read?
Answer: Its EC50 is 3720 nM.

Question: For `CC1CN(C(=O)c2ccc(C#Cc3ccccc3)cc2)CC(C)O1` (stereo not drawn) [(2,6-dimethylmorpholino)(4-(phenylethynyl)phenyl)methanone], which EC50 is on record?
Answer: The EC50 was 88.9 nM.

Question: For `O=C(c1ccc(C#Cc2ccccc2)cc1)N1CCCC(O)C1` (stereo not drawn) [(3-hydroxypiperidin-1-yl)(4-(phenylethynyl)phenyl)methanone], which EC50 is on record?
Answer: Its EC50 is 134 nM.

Question: Which EC50 does the source give for `O=C(c1ccc(C#Cc2ccccc2)cc1)N1CCN(c2ccccc2F)CC1` [(4-(2-fluorophenyl)piperazin-1-yl)(4-(phenylethynyl)phenyl)methanone] here?
Answer: Its EC50 is 5140 nM.

Question: How did the EC50 turn out when `COCCNC1CCN(C(=O)c2ccc(C#Cc3ccccc3)cc2)CC1` [(4-(2-methoxyethylamino)piperidin-1-yl)(4-(phenylethynyl)phenyl)methanone] was run?
Answer: The EC50 was 1190 nM.

Question: How did the EC50 turn out when `COc1ccccc1N1CCN(C(=O)c2ccc(C#Cc3ccccc3)cc2)CC1` [(4-(2-methoxyphenyl)piperazin-1-yl)(4-(phenylethynyl)phenyl)methanone] was run?
Answer: The EC50 was 2100 nM.

Question: `O=C(c1ccc(C#Cc2ccccc2)cc1)N1CCC(NCCN2CCOCC2)CC1` [(4-(2-morpholinoethylamino)piperidin-1-yl)(4-(phenylethynyl)phenyl)methanone] was tested. Which EC50 did it give?
Answer: The EC50 was 383 nM.

Question: `O=C(c1ccc(-c2nc(-c3ccc(F)cc3)no2)cc1)N1CCN(c2ccncc2)CC1` [(4-(3-(4-fluorophenyl)-1,2,4-oxadiazol-5-yl)phenyl)(4-(pyridin-4-yl)piperazin-1-yl)methanone] was tested. Which EC50 did it give?
Answer: Its EC50 is 4210 nM.

Question: `O=C(c1ccc(C#Cc2ccccc2)cc1)N1CCC(O)(c2ccc(Cl)cc2C(F)(F)F)CC1` [(4-(4-chloro-2-(trifluoromethyl)phenyl)-4-hydroxypiperidin-1-yl)(4-(phenylethynyl)phenyl)methanone] was tested. Which EC50 did it give?
Answer: The EC50 was 477 nM.

Question: `O=C(c1ccc(C#Cc2ccccc2)cc1)N1CCC(O)(c2ccc(Cl)cc2)CC1` [(4-(4-chlorophenyl)-4-hydroxypiperidin-1-yl)(4-(phenylethynyl)phenyl)methanone] was tested. Which EC50 did it give?
Answer: The EC50 was 6460 nM.

Question: How did the EC50 turn out when `CN1CCN(C2CCN(C(=O)c3ccc(C#Cc4ccccc4)cc3)CC2)CC1` [(4-(4-methylpiperazin-1-yl)piperidin-1-yl)(4-(phenylethynyl)phenyl)methanone] was run?
Answer: Its EC50 is 132 nM.

Question: For `O=C(c1ccc(C#Cc2ccccc2)cc1)N1CCC(N2CCC2)CC1` [(4-(azetidin-1-yl)piperidin-1-yl)(4-(phenylethynyl)phenyl)methanone], which EC50 is on record?
Answer: The EC50 was 1110 nM.

Question: Which EC50 does the source give for `O=C(c1ccc(C#Cc2ccccc2)cc1)N1CCC(NC2CCC2)CC1` [(4-(cyclobutylamino)piperidin-1-yl)(4-(phenylethynyl)phenyl)methanone] here?
Answer: The EC50 was 212 nM.

Question: Which EC50 does the source give for `O=C(c1ccc(C#Cc2ccccc2)cc1)N1CCC(NC2CCCCC2)CC1` [(4-(cyclohexylamino)piperidin-1-yl)(4-(phenylethynyl)phenyl)methanone] here?
Answer: Its EC50 is 78 nM.

Question: `O=C(c1ccc(C#Cc2ccccc2)cc1)N1CCC(NCC2CC2)CC1` [(4-(cyclopropylmethylamino)piperidin-1-yl)(4-(phenylethynyl)phenyl)methanone] was tested. Which EC50 did it give?
Answer: Its EC50 is 2790 nM.

Question: How did the EC50 turn out when `CCCC(C)NC1CCN(C(=O)c2ccc(C#Cc3ccccc3)cc2)CC1` (stereo not drawn) [(4-(pentan-2-ylamino)piperidin-1-yl)(4-(phenylethynyl)phenyl)methanone] was run?
Answer: Its EC50 is 59.5 nM.

Question: `O=C(c1ccc(C#Cc2ccccc2)cc1)N1CCC(N2CCN(c3ccncc3)CC2)CC1` [(4-(phenylethynyl)phenyl)(4-(4-(pyridin-4-yl)piperazin-1-yl)piperidin-1-yl)methanone] was tested. Which EC50 did it give?
Answer: Its EC50 is 113 nM.

Question: Which EC50 does the source give for `O=C(c1ccc(C#Cc2ccccc2)cc1)N1CCN(c2ccccn2)CC1` [(4-(phenylethynyl)phenyl)(4-(pyridin-2-yl)piperazin-1-yl)methanone] here?
Answer: Its EC50 is 2920 nM.

Question: With `O=C(c1ccc(C#Cc2ccccc2)cc1)N1CCN(c2ccncc2)CC1` [(4-(phenylethynyl)phenyl)(4-(pyridin-4-yl)piperazin-1-yl)methanone] as the compound, how does the EC50 read?
Answer: Its EC50 is 3680 nM.

Question: With `O=C(c1ccc(C#Cc2ccccc2)cc1)N1CCC(N2CCCC2)CC1` [(4-(phenylethynyl)phenyl)(4-(pyrrolidin-1-yl)piperidin-1-yl)methanone] as the compound, how does the EC50 read?
Answer: Its EC50 is 3730 nM.

Question: With `O=C(c1ccc(C#Cc2ccccc2)cc1)N1CCN(c2ccccc2)CC1` [(4-(phenylethynyl)phenyl)(4-phenylpiperazin-1-yl)methanone] as the compound, how does the EC50 read?
Answer: Its EC50 is 2060 nM.

Question: For `O=C(c1ccc(C#Cc2ccccc2)cc1)N1CCNCC1` [(4-(phenylethynyl)phenyl)(piperazin-1-yl)methanone], which EC50 is on record?
Answer: Its EC50 is 4790 nM.

Question: For `O=C(c1ccc(C#Cc2ccccc2)cc1)N1CCC(O)(c2ccccc2)CC1` [(4-hydroxy-4-phenylpiperidin-1-yl)(4-(phenylethynyl)phenyl)methanone], which EC50 is on record?
Answer: Its EC50 is 3660 nM.

Question: For `CC(C)N1CCN(C(=O)c2ccc(C#Cc3ccccc3)cc2)CC1` [(4-isopropylpiperazin-1-yl)(4-(phenylethynyl)phenyl)methanone], which EC50 is on record?
Answer: The EC50 was 1190 nM.

Question: How did the EC50 turn out when `CN1CCN(C(=O)c2ccc(C#Cc3ccccc3)cc2)CC1` [(4-methylpiperazin-1-yl)(4-(phenylethynyl)phenyl)methanone] was run?
Answer: The EC50 was 166 nM.

Question: `O=C(c1ccc(/C=C/c2ccccc2)cc1)N1CCC(O)CC1` [(E)-(4-hydroxypiperidin-1-yl)(4-styrylphenyl)methanone] was tested. Which EC50 did it give?
Answer: Its EC50 is 1970 nM.

Question: Which EC50 does the source give for `C[C@@H](CNC(=O)c1ccc(C#Cc2ccccc2)cc1)c1ccccc1` [(R)-4-(phenylethynyl)-N-(2-phenylpropyl)benzamide] here?
Answer: Its EC50 is 34.9 nM.

Question: With `C[C@H](NC1CCN(C(=O)c2ccc(C#Cc3ccccc3)cc2)CC1)C1CCCCC1` [(S)-(4-(1-cyclohexylethylamino)piperidin-1-yl)(4-(phenylethynyl)phenyl)methanone] as the compound, how does the EC50 read?
Answer: Its EC50 is 129 nM.

Question: Which EC50 does the source give for `CCN1CCC[C@H]1CNC(=O)c1ccc(C#Cc2ccccc2)cc1` [(S)-N-((1-ethylpyrrolidin-2-yl)methyl)-4-(phenylethynyl)benzamide] here?
Answer: Its EC50 is 1030 nM.

Question: With `O=C(c1ccc(C#Cc2ccccc2)cc1)N1CCC2CCCCC2C1` (stereo not drawn) [(octahydroisoquinolin-2(1H)-yl)(4-(phenylethynyl)phenyl)methanone] as the compound, how does the EC50 read?
Answer: Its EC50 is 593 nM.
